From patent US20120046333A1, “Methods and Compositions of PI-3 Kinase Inhibitors for Treating Fibrosis” (Oncothyreon Incorporated, priority 2009, published 2012)
“Also recorded” adds a separate entry of the source.

Tests used:
[1] = aqueous solutions at 37° C. or 0° C. at neutral pH; cited from earlier work
[2] = tested on: CCSP-rtTA/otet-TGFα transgenic mice; assay: Prevention of TGFα-induced pulmonary fibrosis, PX-866 given at initiation of TGFα induction; format: in vivo; conditions: 4 weeks of Dox, PX-866 from initiation of TGFα induction
From the text: (§1) CCSP-rtTA activator mice expressing the reverse tetracycline-responsive transactivator (rtTA) under control of the 2.3-kb rat Clara Cell Secretory Protein (CCSP), a.k.a. secretoglobin, family 1A, member 1 (Scgblal) gene promoter were mated to conditional doxycycline (Dox) regulated transgenic mice containing the human TGFα cDNA under the control of seven copies of the tetracycline operon ((TetO)7-cmv TGFα) plus a minimal CMV promoter. Single transgenic (CCSP-rtTA+/−) and bitransgenic CCSP-rtTA+/−/(TetO)7-cmv TGFα+/− mice were produced within the same litter by mating homozygous CCSP-rtTA+/+ mice to hemizygous (TetO)?-cmv TGFα+/− mice. All mice were derived from the FVB/NJ inbred strain. […]
(§2) Lung Histology, Immunostaining and Total Lung Collagen: Lungs were inflation fixed as previously described. […] Total lung collagen was determined by quantifying total soluble collagen (Sircol Collagen Assay, Biocolor, Ireland) as previously described.
(§3) Pulmonary Mechanics: Lung mechanics were assessed on mice with a computerized Flexi Vent system (SCIREQ, Montreal, Canada). […] The ventilation mode was changed to forced oscillatory signal (0.5-19.6 Hz), and respiratory impedance was measured. […]
(§4) Statistics: Means (+/−SEM) were calculated and plotted for each variable, by mouse group (CCSP/-Vehicle, CCSP/TGFα Vehicle, CCSP/TGFα PX-866). Data were assessed for normality using plots and the Shapiro-Wilk test. […]

[3] = tested on: CCSP-rtTA/otet-TGFα transgenic mice; assay: Progression of established TGFα-induced pulmonary fibrosis, PX-866 given after 4 weeks of Dox; format: in vivo; conditions: 8 weeks of Dox
From the text: CCSP-rtTA activator mice expressing the reverse tetracycline-responsive transactivator (rtTA) under control of the 2.3-kb rat Clara Cell Secretory Protein (CCSP), a.k.a. secretoglobin, family 1A, member 1 (Scgblal) gene promoter were mated to conditional doxycycline (Dox) regulated transgenic mice containing the human TGFα cDNA under the control of seven copies of the tetracycline operon ((TetO)7-cmv TGFα) plus a minimal CMV promoter. Single transgenic (CCSP-rtTA+/−) and bitransgenic CCSP-rtTA+/−/(TetO)7-cmv TGFα+/− mice were produced within the same litter by mating homozygous CCSP-rtTA+/+ mice to hemizygous (TetO)?-cmv TGFα+/− mice. All mice were derived from the FVB/NJ inbred strain. Mice were maintained in virus-free containment. All animal protocols were reviewed and approved by the Institutional Animal Use and Care Committee of the Cincinnati Children's Hospital Research Foundation. To induce TGFα expression, Dox (Sigma, St. Louis, Mo.) was administered in the drinking water at a final concentration of 0.5 mg/ml and in food (62.5 mg/kg). Water was replaced three times per week. Mice were genotyped as known in the art.
The PI3K inhibitor PX-866 (ProIX Pharmaceuticals, Tucson, Ariz.) was suspended into 5% EtOH to make a 5 mg/ml stock solution. Three hours prior to administration, food and water were removed from cages. Mice were then anesthetized (Isoflurane; Abbott Labs, Chicago, Ill.), and sterile vehicle or drug (3 mg/kg) was administered by gavage using a 20 gauge feeding catheter (Harvard Apparatus, Holliston, Mass.). Mice were treated with vehicle or PX-866 every other day for up to 4 weeks. Mice were killed with pentobarbital sodium (65 mg/ml) euthanasia solution (Fort Dodge Animal Health, Fort Dodge, Iowa) 1 day or 4 weeks after Dox and vehicle or PX-866 treatment.
as §2, §3, §4
Weights of mice in four different groups were measured at Baseline and at evenly spaced intervals during the next eight weeks, once per week. […] Differences in selected (a priori) Group*Time means were calculated and tested using a simulation-based adjustment for multiple comparisons. […]

[4] = tested on: phosphorylated Akt (P-Akt) Ser 473; assay: Western blot of TGFα-induced phosphorylation of Akt in lung homogenates; format: in vivo; conditions: 1 day of Dox, PX-866 pretreatment 3 mg/kg by gavage, vs vehicle-treated transgenic mice
From the text: as §1, with “strain. Mice were maintained in virus-free containment.” for “strain.”
Western Blots: Western blot analysis was performed on lung homogenates as previously described. Blots were incubated with antibodies against total and phosphorylated Akt (Ser 473 and Thr 308, Cell Signaling Technology) and quantified using the volume integration function on a PhosphorImager software Imagequant 5.2 (Molecular Dynamics, Sunnyvale, Calif.).
PX-866 inhibits TGFα-Induced Phosphorylation of Akt: CCSP-rtTA/otet-TGFαmice were treated with 1 day of Dox to induce TGFα expression. Phosphorylated Akt (P-Akt) levels for Ser 473 as measured by Western blot analysis increased over 5-fold compared to Dox-treated control mice.

[5] = PX-866 from 4 weeks after TGFα induction

Compound | stability in aqueous solution [1] | lung mechanics (airway resistance, airway and tissue elastance, compliance) [2] | lung fibrosis by histology [3, 5] | lung mechanics (airway resistance, airway and tissue elastance, compliance) [3, 5] | total lung collagen [3, 5] | body weight ([3]; PX-866 from beginning of week 5) | TGFα-induced phosphorylation of Akt (P-Akt, Ser 473) [4]
COC[C@H]1OC(=O)c2coc3c2[C@@]1(C)C1=C(C3=O)[C@@H]2CCC(=O)[C@@]2(C)C[C@H]1OC(C)=O [Wortmannin] | subject to decomposition by hydrolytic opening of the furan ring |  |  |  |  |  | 
C=CCN(/C=C1/C(=O)O[C@H](COC)[C@@]2(C)C1=C(O)C(=O)C1=C2[C@H](OC(C)=O)C[C@]2(C)C(=O)CC[C@@H]12)CC=C [PX-866] |  | did not show any differences in lung mechanics; also recorded: prevented increases in airway resistance, airway and tissue elastance, and decreases in compliance | reduced pleural fibrosis as well as reduced perivascular and peribronchial fibrosis; also recorded: reduced fibrosis on lung histology; also recorded: attenuation of fibrosis | significantly improved compared with vehicle-treated mice; also recorded: improved lung mechanics; also recorded: reduced increases in airway resistance, and airway and tissue elastance, and decreases in compliance | reduced lung collagen levels; also recorded: unchanged compared with mice taken off Dox after 4 weeks | prevented further body weight loss; also recorded: normalization of body weights; also recorded: did not have changes in body weight | prevented TGFα-induced increases in P-Akt; also recorded: prevented increased phosphorylation of Akt
